Laboratory results taken from paper PMC4838876, “Multivalent display of minimal Clostridium difficile glycan epitopes mimics antigenic properties of larger glycans” (Nature Communications, 2016).

Test system: mAbs 2C5, 10A1 and 10D6
Assay: Glycan microarray binding of purified mAbs
Set-up: species or system mouse
Details: purified mAbs on microarray, 10 μg ml^−1
Excerpt: Three hybridoma clones termed 2C5, 10A1 and 10D6 produced IgG exclusively binding to 1. […] The three mAbs were of the IgG1 subtype (Fig. 4b). Microarrays with PS-I oligosaccharide substructures were used to determine their binding specificities (Fig. 4c). […] No binding to oligoglucoses 5 and 6, or unrelated glycans 7 or 8 was seen (Fig. 4c,d). Based on these findings, we concluded that the requirements for anti-PS-I antibody binding were a terminal rhamnose that is 1→3 linked to a glucose, as present in glycans 1–3.
Figure 4 Characterization and epitope recognition patterns of anti-PS-I mAbs. (a) SDS–PAGE analysis of the purified mAbs showing bands corresponding to heavy and light IgG chains. (b) Isotyping analysis of the three mAbs. […] (d) Glycan microarray-inferred binding signals to selected PS-I antigens (1–4) expressed as background-subtracted mean fluorescence intensities (MFIs) are shown. […]
Microarray slides were blocked with 1% BSA in PBS (w/v) for 1 h at RT, washed three times with PBS and dried by centrifugation (300 g, 5 min). […] Slides were incubated with fluorescence-labelled secondary antibodies diluted 1:400 in 1% BSA in PBS (w/v) in a humid chamber for 1 h at RT, washed three times with 0.1% Tween-20 in PBS (v/v), rinsed once with deionized water and dried by centrifugation (300 g, 5 min) before scanning with a GenePix 4300A microarray scanner (Molecular Devices). […]

SMILES | Glycan microarray binding signal (in words)
C[C@@H]1O[C@@H](O[C@@H]2[C@@H](O)[C@H](O[C@H]3[C@H](O[C@@H]4O[C@@H](C)[C@H](O)[C@@H](O)[C@H]4O)[C@@H](O)[C@@H](O[C@H]4[C@@H](OCCCCCN)O[C@H](CO)[C@@H](O)[C@@H]4O)O[C@@H]3CO)O[C@H](CO)[C@H]2O)[C@H](O)[C@H](O)[C@H]1O [Compound 1] | Highest binding signals
C[C@@H]1O[C@@H](O[C@@H]2[C@@H](O)[C@H](OCCCCCN)O[C@H](CO)[C@H]2O)[C@H](O)[C@H](O)[C@H]1O [Compound 3, Rha-(1→3)-Glc] | weaker signals
